Measured values as given in patent publication US11913003B2, “Method for improving soybean transformation efficiency” (BEIJING DABEINONG BIOTECHNOLOGY CO., LTD., priority 2017, dated 2024).

Tested on: soybean meristem blocks
Assay: Agrobacterium-mediated soybean transformation (SULE selective marker) with screening by external (dropwise) application of tribenuron methyl; positive plants verified by TaqMan
Type: cell-based, Glycine max
Protocol: Screening of soybean meristem block: After the recovery period, the meristem block was transferred to 60 ml of a proliferation medium without a selective agent (tribenuron methyl) (B5 salt 3.1 g/L, B5 vitamin, MES 1 g/L, sucrose 30 g/L, 6-BAP 1 mg/L, agar 8 g/L, cephalosporin 150 mg/L, glutamic acid 100 mg/L, aspartic acid 100 mg/L, pH 5.6), so that the soybean meristem block grew rapidly, and the screening and culturing was carried out for 5-9 days, preferably 7 days, under the conditions of a temperature of 24° C. and a photoperiod (light/dark) of 16:8. After the above soybean meristem block was proliferated for 5-9 days, tribenuron methyl herbicide (95% tribenuron methyl wettable powder) was externally applied in concentration of 1, 3, 5 and 7 μg to per ml of the proliferation medium, respectively, in which the diluted tribenuron methyl herbicide solution was added to the proliferation medium to cause selective growth of the transformed cells, and the screening and culturing was carried out at a temperature of 24° C. and a photoperiod (light/dark) of 16:8 for 2 weeks.
Regeneration of plant from resistant soybean tissue block: The resistant tissue blocks after the above screening treatment with four concentrations of tribenuron methyl were separately taken out from the proliferation medium containing tribenuron methyl, the dead tissues and cotyledons attached thereto were removed, the resistant tissue blocks were transferred to (obliquely inserted into) a B5 differentiation medium without selective agent (tribenuron methyl) (B5 salt 3.1 g/L, B5 vitamin, MES 1 g/L, sucrose 30 g/L, ZT 1 mg/L, agar 8 g/L, cephalosporin 150 mg/L, glutamic acid 50 mg/L, aspartic acid 50 mg/L, gibberellin 1 mg/L, auxin 1 mg/L, pH 5.6), and cultured for differentiation at a temperature of 24° C. and a photoperiod (light/dark) of 16:8 for 14-20 days, preferably 18 days. After the differentiation and growth of the above screened four resistant soybean tissue blocks for 14-20 days, […] of tribenuron methyl herbicide (95% tribenuron methyl wettable powder) was externally applied to per ml of the B5 differentiation medium, in which the diluted solution of tribenuron methyl herbicide was added dropwise to the B5 differentiation medium by a pipette, and the screening and culturing was continued at a temperature of 24° C. and a photoperiod (light/dark) of 16:8 until the resistant tissue blocks (transformed cells) regenerated into plants or the regenerated plants could survive.
In the present example, in the screening step of the above soybean meristem blocks and the plant regenerating step of the resistant soybean tissue blocks, the tribenuron methyl herbicide (95% tribenuron methyl wettable powder) was applied to per ml of the proliferation medium or the B5 differentiation medium, and the concentration examples of the diluted tribenuron methyl herbicide solution added dropwise to the proliferation medium or the B5 differentiation medium were shown in Table 1. The proliferated soybean meristem blocks were screened for tolerance to tribenuron methyl herbicide, and the specific information of the 12 treatments was shown in Table 2, and the screening results for each treatment were shown in Table 3, in which each treatment was repeated for 3 times.
The seedlings differentiated from the above 12 treatments were transferred to a B5 rooting medium (B5 salt 3.1 g/L, B5 vitamin, MES 1 g/L, sucrose 30 g/L, agar 8 g/L, cephalosporin 150 mg/L, indole-3-butyric acid (IBA) 1 mg/L, pH 5.6), cultured at 25° C. to a height of about 10 cm, and moved to a greenhouse to grow until fructification. The transgenic plants could be obtained by culturing at 26° C. for 16 hours and then at 20° C. for 8 hours per day in a greenhouse. […]

[1] = Treatment 1: 1 μg/ml proliferation medium, 3 μg/ml B5 differentiation medium
[2] = Treatment 1: 1 μg/ml proliferation medium, 3 μg/ml B5 differentiation medium, 50 initially germinated soybeans
[3] = Treatment 2: 1 μg/ml proliferation medium, 5 μg/ml B5 differentiation medium
[4] = Treatment 2: 1 μg/ml proliferation medium, 5 μg/ml B5 differentiation medium, 55 initially germinated soybeans
[5] = Treatment 3: 1 μg/ml proliferation medium, 7 μg/ml B5 differentiation medium
[6] = Treatment 3: 1 μg/ml proliferation medium, 7 μg/ml B5 differentiation medium, 75 initially germinated soybeans
[7] = Treatment 4: 3 μg/ml proliferation medium, 3 μg/ml B5 differentiation medium
[8] = Treatment 4: 3 μg/ml proliferation medium, 3 μg/ml B5 differentiation medium, 55 initially germinated soybeans
[9] = Treatment 5: 3 μg/ml proliferation medium, 5 μg/ml B5 differentiation medium
[10] = Treatment 5: 3 μg/ml proliferation medium, 5 μg/ml B5 differentiation medium, 60 initially germinated soybeans
[11] = Treatment 6: 3 μg/ml proliferation medium, 7 μg/ml B5 differentiation medium, 45 initially germinated soybeans
[12] = Treatment 7: 5 μg/ml proliferation medium, 3 μg/ml B5 differentiation medium
[13] = Treatment 7: 5 μg/ml proliferation medium, 3 μg/ml B5 differentiation medium, 50 initially germinated soybeans
[14] = Treatment 8: 5 μg/ml proliferation medium, 5 μg/ml B5 differentiation medium
[15] = Treatment 8: 5 μg/ml proliferation medium, 5 μg/ml B5 differentiation medium, 70 initially germinated soybeans
[16] = Treatment 9: 5 μg/ml proliferation medium, 7 μg/ml B5 differentiation medium
[17] = Treatment 9: 5 μg/ml proliferation medium, 7 μg/ml B5 differentiation medium, 43 initially germinated soybeans
[18] = Treatment 10: 7 μg/ml proliferation medium, 3 μg/ml B5 differentiation medium
[19] = Treatment 10: 7 μg/ml proliferation medium, 3 μg/ml B5 differentiation medium, 80 initially germinated soybeans
[20] = Treatment 11: 7 μg/ml proliferation medium, 5 μg/ml B5 differentiation medium
[21] = Treatment 11: 7 μg/ml proliferation medium, 5 μg/ml B5 differentiation medium, 75 initially germinated soybeans
[22] = Treatment 12: 7 μg/ml proliferation medium, 7 μg/ml B5 differentiation medium
[23] = Treatment 12: 7 μg/ml proliferation medium, 7 μg/ml B5 differentiation medium, 80 initially germinated soybeans

## COC(=O)c1ccccc1S(=O)(=O)NC(=O)N(C)c1nc(C)nc(OC)n1 [tribenuron methyl]
[1]
  Positive plant rate: 22.2%
  Transformation efficiency: 12.0%
[2]
  Number of positive plants: 6 plant
  Number of seedlings: 27 plant
[3]
  Positive plant rate: 25.0%
  Transformation efficiency: 10.9%
[4]
  Number of positive plants: 6 plant
  Number of seedlings: 24 plant
[5]
  Positive plant rate: 50.0%
  Transformation efficiency: 6.7%
[6]
  Number of positive plants: 5 plant
  Number of seedlings: 10 plant
[7]
  Positive plant rate: 20.0%
  Transformation efficiency: 9.1%
[8]
  Number of positive plants: 5 plant
  Number of seedlings: 25 plant
[9]
  Positive plant rate: 21.4%
  Transformation efficiency: 10.0%
[10]
  Number of positive plants: 6 plant
  Number of seedlings: 28 plant
Treatment 6: 3 μg/ml proliferation medium, 7 μg/ml B5 differentiation medium
  Positive plant rate: 47.8%
[11]
  Number of positive plants: 11 plant
  Number of seedlings: 23 plant
[12]
  Positive plant rate: 36.8%
  Transformation efficiency: 14.0%
[13]
  Number of positive plants: 7 plant
  Number of seedlings: 19 plant
[14]
  Positive plant rate: 25.0%
  Transformation efficiency: 5.7%
[15]
  Number of positive plants: 4 plant
  Number of seedlings: 16 plant
[16]
  Positive plant rate: 62.5%
  Transformation efficiency: 11.6%
[17]
  Number of positive plants: 5 plant
  Number of seedlings: 8 plant
[18]
  Positive plant rate: 60.0%
  Transformation efficiency: 11.3%
[19]
  Number of positive plants: 9 plant
  Number of seedlings: 15 plant
[20]
  Positive plant rate: 77.7%
  Transformation efficiency: 9.3%
[21]
  Number of positive plants: 7 plant
  Number of seedlings: 9 plant
[22]
  Positive plant rate: 80.0%
  Transformation efficiency: 5.0%
[23]
  Number of positive plants: 4 plant
  Number of seedlings: 5 plant
